Experimental data taken from US7138423B2, “Arylpyrrolidine derivatives as NK-1 /SSRI antagonists” (Bristol-Myers Squibb Company, priority 2004, dated 2006).
Where a name gives a salt, the structure may show the parent alone.

Tests used:
[1] = biological target: T1, neurokinin-1 (NK-1) receptor (Homo sapiens, UniProt P25103); experiment: NK-1 binding, [125I] Substance P competition, U373 cell membranes; settings: for IC50: U373 membranes, Bolton Hunter [125I] Substance P displacement; for activity for NK-1: summary statement referring to Table 1
T1 construct: a human glioblastoma-astrocytoma cell line that endogenously expresses the neurokinin-1 (NK-1) receptor; endogenous in cells; host or cells: U373 human glioblastoma-astrocytoma cells (membranes)
T1 sequence (P25103 whole entry): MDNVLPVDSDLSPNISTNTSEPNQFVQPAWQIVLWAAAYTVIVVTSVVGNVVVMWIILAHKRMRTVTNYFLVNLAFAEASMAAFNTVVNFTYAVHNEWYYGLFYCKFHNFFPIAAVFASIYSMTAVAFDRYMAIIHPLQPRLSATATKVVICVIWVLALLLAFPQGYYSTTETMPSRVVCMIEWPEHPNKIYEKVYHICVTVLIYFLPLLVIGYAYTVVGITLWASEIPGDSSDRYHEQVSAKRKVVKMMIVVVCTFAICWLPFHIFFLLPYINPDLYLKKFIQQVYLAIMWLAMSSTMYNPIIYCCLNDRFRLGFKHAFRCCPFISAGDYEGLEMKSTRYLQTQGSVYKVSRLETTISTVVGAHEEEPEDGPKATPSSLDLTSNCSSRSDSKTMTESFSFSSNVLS
Method: U373 cells, a human glioblastoma-astrocytoma cell line that endogenously expresses the neurokinin-1 (NK-1) receptor, were grown in a monolayer culture at 37° C. in 5% CO2 and fed with Minimum Essential Medium (MEM) supplemented with 10% fetal bovine serum. Membranes were prepared as follows: Cells were washed twice with ice-cold phosphate-buffered saline (pH 7.4) and then incubated for 5 to 10 minutes with ice-cold 10 mM Tris buffer (pH 7.4) containing 5 mM EDTA. Cells were removed from plates, homogenized, and centrifuged at 32,000×g for 20 minutes. The resulting supernatant was discarded, and the pellet resuspended by homogenization in 50 mM Tris buffer (pH 7.4) containing 1 mM EDTA and centrifuged at 32,000×g for 20 minutes. The resulting supernatant was discarded, and the pellet resuspended by homogenization in NK-1 binding assay buffer (50 mM Tris-HCL (pH 7.4), 3 mM MnCl2, 200 μg/ml BSA, 5 μg/ml chymostatin, 40 μg/ml bacitracin and 4 μg/ml leupeptin).
On the day of an experiment the membrane preparation was thawed, homogenized and diluted with NK-1 binding assay buffer to the appropriate concentration. Competition binding assays were performed in 96 well plate format by incubating membranes (5–10 ug/well) with Bolton Hunter labeled [^125I] Substance P, at a concentration of […], and concentrations of drugs ranging from 10000 to 0.01 nM. Samples were incubated for 30 min at 20° C. then filtered through GF/B glass fiber filters (pretreated with 1% polyethyleneimine and 0.3% Triton X-100) using a Brandel cell harvester. The filters were then washed with 10 ml ice cold 50 mM Tris-HCL (pH 7.4) containing 3 mM MgCl2. Non-specific was defined in the presence of 2 μM L-733,060 (a non-peptide NK-1 antagonist). Amount of radioligand bound in the presence and absence of competitor was analyzed by plotting (−)log drug concentration versus the amount of radioligand specifically bound. The midpoint of the displacement curve (IC50, nM), signifies the potency. Ki values were calculated using the method of Cheng and Prusoff [Cheng, Y.-C. and Prusoff, W. H., Biochemical Pharmacology, Vol. 22, pp. 3099–3108, Pergamon Press (1973)].

[2] = biological target: T2, human serotonin transporters (Homo sapiens, UniProt P31645); experiment: Serotonin transporter binding assay, [3H]-citalopram, HEK-hSERT membranes; settings: for IC50: HEK-hSERT membranes, 1 nM [3H]-citalopram displacement, read-out: SERT IC50; for activity for SERT: summary statement referring to Table 1
T2 construct: expressed in transfected cells; host or cells: HEK-293 cells stably expressing hSERT (G418 selection), membranes
T2 sequence (P31645 whole entry): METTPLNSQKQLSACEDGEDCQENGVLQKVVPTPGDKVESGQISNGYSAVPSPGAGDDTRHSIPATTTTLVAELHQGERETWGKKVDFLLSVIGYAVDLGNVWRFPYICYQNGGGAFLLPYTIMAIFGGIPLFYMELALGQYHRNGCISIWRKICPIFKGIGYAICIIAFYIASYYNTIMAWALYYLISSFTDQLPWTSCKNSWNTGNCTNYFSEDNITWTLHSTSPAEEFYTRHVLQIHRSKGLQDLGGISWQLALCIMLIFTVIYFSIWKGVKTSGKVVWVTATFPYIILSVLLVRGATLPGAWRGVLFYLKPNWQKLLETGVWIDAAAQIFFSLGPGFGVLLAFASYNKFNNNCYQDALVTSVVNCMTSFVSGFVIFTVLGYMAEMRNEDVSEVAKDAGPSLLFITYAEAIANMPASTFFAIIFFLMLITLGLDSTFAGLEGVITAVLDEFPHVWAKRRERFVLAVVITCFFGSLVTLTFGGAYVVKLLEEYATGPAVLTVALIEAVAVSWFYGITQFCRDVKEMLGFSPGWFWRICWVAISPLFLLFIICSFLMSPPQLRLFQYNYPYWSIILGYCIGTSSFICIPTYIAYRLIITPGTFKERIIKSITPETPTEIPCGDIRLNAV
Method: Serotonin Transporter Binding Assay
HEK-293 cells that stably express human serotonin transporters (HEK-hSERT cells) were grown at 37° C. in 5% CO2 as a monolayer in medium consisting of EMEM supplemented with 10% fetal bovine serum and G418 sulfate (500 μg/ml). To prepare membranes for radioligand binding experiments, cells were rinsed twice with phosphate-buffered saline (138 mM NaCl, 4.1 mM KCl, 5.1 mM Na2PO4, 1.5 mM […], 11.1 mM glucose, pH 7.4). Cells were transferred from plates to polypropylene tubes (16×100 mm), centrifuged at 1,200×g for 5 min and were frozen at −80° C. until assay. Following centrifugation, pellets were resuspended by homogenization in buffer consisting of 50 mM Tris (pH 7.7 at 25° C.), 120 mM NaCl and 5 mM KCl and then centrifuged at 32,000×g for 10 min. Following centrifugation, supernatants were discarded and pellets were resuspended in buffer consisting of 50 mM Tris (pH 7.4 at 25° C.), 150 mM NaCl and 5 mM KCl. Membrane homogenates (200 μl/plate) were incubated with 1 nM [^3H]-citalopram (specific activity=85 Ci/mmol) and increasing concentrations of test compounds for 1 hr at 25° C. in a total volume of 250 μl. The assay buffer consisted of 50 mM Tris (pH 7.4 at 25° C.), 120 mM NaCl and 5 mM KCl (pH 7.4 with conc. HCl). Plates were incubated for 1 hr at 25° C., then filtered through 0.5% PEI treated Whatman GF/B filters using a Brandel cell harvester. Filters were washed three times with 3 ml of ice-cold Tris wash buffer. Non-specific binding was defined with 10 μM fluoxetine. Amount of radioligand bound in the presence and absence of competitor was analyzed by plotting (−)log drug concentration versus the amount of radioligand specifically bound. The midpoint of the displacement curve (IC50, nM), signifies the potency. Ki values were calculated using the method of Cheng and Prusoff [Cheng, Y.-C. and Prusoff, W. H., Biochemical Pharmacology, Vol. 22, pp. 3099–3108, Pergamon Press (1973)].

| SMILES | IC50 [1] [nM] | IC50 [2] [nM] | activity for SERT [2] | activity for NK-1 [1] |
| --- | --- | --- | --- | --- |
| FC(F)(F)c1cc(COC[C@@H]2CNC[C@H]2c2ccccc2)cc(C(F)(F)F)c1 (relative stereo) [Example 1, Trans-3-((3,5-bis(trifluoromethyl)benzyloxy)methyl)-4-phenylpyrrolidine hydrochloride] | 20 to 100 | – | – | – |
| Fc1cc(F)cc(COC[C@@H]2CNC[C@H]2c2ccccc2)c1 (relative stereo) [Example 4, Trans-3-((3,5-difluorobenzyloxy)methyl)-4-phenylpyrrolidine] | – | 20 to 100 | – | – |
| FC(F)(F)c1ccccc1COC[C@@H]1CNC[C@H]1c1ccccc1 (relative stereo) [Example 5, Trans-3-((2-trifluorobenzyloxy)-methyl)-4-phenylpyrrolidine] | – | 100 to 300 | – | – |
| Cc1cc(C)cc(COCC2CNCC2c2ccccc2)c1 (stereo not drawn) [Example 2, Trans-3-((3,5-dimethylbenzyloxy)-methyl)-4-phenylpyrrolidine] | 100 to 300 | 20 to 100 | have activity | have activity |

Now from value to compound:

| IC50 [1] [nM] | IC50 [2] [nM] | activity for SERT [2] | activity for NK-1 [1] | SMILES |
| --- | --- | --- | --- | --- |
| – | 20 to 100 | – | – | FC(F)(F)c1cccc(COC[C@@H]2CNC[C@H]2c2ccccc2)c1 (relative stereo) [Example 6, Trans-3-((3-trifluoromethylbenzyloxy)-methyl)-4-phenylpyrrolidine] |
| 100 to 300 | – | – | – | FC(F)(F)c1cc(COC[C@@H]2CNC[C@H]2c2c[nH]c3ccccc23)cc(C(F)(F)F)c1 (relative stereo) [Example 8, Trans-3-(4-((3,5-bis(trifluoromethyl)benzy-loxy)methyl)pyrrolidin-3-yl)-1H-indole] |
| – | 20 to 100 | – | – | Cc1cc(C)cc(OC[C@@H]2CNC[C@H]2c2ccccc2)c1 (relative stereo) [Example 11, Trans-3-((3,5-dimethylphenoxy)methyl)-4-phenylpyrrolidine hydrochloride] |
| 100 to 300 | – | – | – | FC(F)(F)c1cc(OC[C@@H]2CNC[C@H]2c2c[nH]c3ccccc23)cc(C(F)(F)F)c1 (relative stereo) [Example 12, Trans-3-(4-((3,5-bis(trifluoromethyl)phenoxy)methyl)pyrrolidin-3-yl)-1H-indole] |
| 100 to 300 | 20 to 100 | have activity | have activity | FC(F)(F)c1cc(OCC2CNCC2c2ccccc2)cc(C(F)(F)F)c1 (stereo not drawn) [Example 10, Trans-3-((3,5-bis(trifluoromethyl)phenoxy)methyl)-4-phenylpyrrolidine trifluoroacetic acid salt] |
